Drawing on the NIST ThermoML archive (doi:10.1016/j.fluid.2014.11.020), this text covers activity coefficient for 38 compounds.

Each structure is given as a SMILES string. Numbers after ± are expanded uncertainties.

This data set is described as follows: activity coefficient (dimensionless); of the first substance listed, at infinite dilution; xn = mol fraction of the nth substance listed. Particulars: Liquid, Chromatography, x1 = 0.

Turning to `C=CCCCC` [hex-1-ene] + CCCCCCCCn1cc[n+](COCCCOC[n+]2ccn(CCCCCCCC)c2C)c1C.O=S(=O)([N-]S(=O)(=O)C(F)(F)F)C(F)(F)F.O=S(=O)([N-]S(=O)(=O)C(F)(F)F)C(F)(F)F, the activity coefficient (323.15 K) turned out to be 2.33 ± 0.16, the activity coefficient (333.15 K) was 2.51 ± 0.17 and the activity coefficient (343.15 K) came out at 2.35 ± 0.16.
In the case of `CCCO` [propan-1-ol] + CCCCCCCCn1cc[n+](COCCC)c1C.N#C[N-]C#N, the activity coefficient reads like this: (323.15 K) 0.4 ± 0.03; (333.15 K) 0.4 ± 0.03; (343.15 K) 0.39 ± 0.03.
Take `CC1CCCCC1` [methylcyclohexane] + CCCCCCCCn1cc[n+](COCCCOC[n+]2ccn(CCCCCCCC)c2C)c1C.N#C[N-]C#N.N#C[N-]C#N: the activity coefficient was found to be 5.75 ± 0.39 (323.15 K), 5.07 ± 0.35 (333.15 K) and 4.82 ± 0.33 (343.15 K).
The corresponding values for `ClCCl` [dichloromethane] + CCCOC[n+]1ccn(Cc2ccccc2)c1.F[B-](F)(F)F are 0.78 ± 0.05, 0.78 ± 0.05 and 0.79 ± 0.05.
Take `ClCCl` [dichloromethane] + CCCOC[n+]1ccn(C)c1.N#C[N-]C#N: the activity coefficient is 0.69 ± 0.05 (323.15 K), 0.74 ± 0.05 (333.15 K) and 0.78 ± 0.05 (343.15 K).
For the compound `CCCC(C)=O` [pentan-2-one] + CCCCCCCCn1cc[n+](COCCCOC[n+]2ccn(CCCCCCCC)c2C)c1C.N#C[N-]C#N.N#C[N-]C#N, the activity coefficient came out at 0.8 ± 0.05 (323.15 K), 0.8 ± 0.05 (333.15 K) and 0.81 ± 0.05 (343.15 K).
Take `c1ccccc1` [benzene] + CN(C)c1cc[n+](COCCCOC[n+]2ccc(N(C)C)cc2)cc1.O=S(=O)([N-]S(=O)(=O)C(F)(F)F)C(F)(F)F.O=S(=O)([N-]S(=O)(=O)C(F)(F)F)C(F)(F)F: the activity coefficient reads like this: (323.15 K) 0.66 ± 0.05; (333.15 K) 0.67 ± 0.05; (343.15 K) 0.68 ± 0.05.
Regarding `c1ccccc1` [benzene] + CCCOC[n+]1ccn(C)c1.F[B-](F)(F)F, the activity coefficient by setting is: (323.15 K) 3.51 ± 0.24; (333.15 K) 3.45 ± 0.23; (343.15 K) 3.46 ± 0.24.
Turning to `ClCCl` [dichloromethane] + CCCCCCCCn1cc[n+](COCCC)c1C.O=S(=O)([N-]S(=O)(=O)C(F)(F)F)C(F)(F)F, the activity coefficient (323.15 K) was 0.42 ± 0.04, the activity coefficient (333.15 K) was 0.43 ± 0.04 and the activity coefficient (343.15 K) worked out at 0.48 ± 0.04.
With `C#CCCCC` [1-hexyne] + CCCCCCCCn1cc[n+](COCCC)c1C.O=S(=O)([N-]S(=O)(=O)C(F)(F)F)C(F)(F)F, the activity coefficient turned out to be 1.39 ± 0.09 (323.15 K), 1.36 ± 0.09 (333.15 K) and 1.34 ± 0.09 (343.15 K).
On to `Cc1ccccc1` [toluene] + CN(C)c1cc[n+](COCCCOC[n+]2ccc(N(C)C)cc2)cc1.O=S(=O)([N-]S(=O)(=O)C(F)(F)F)C(F)(F)F.O=S(=O)([N-]S(=O)(=O)C(F)(F)F)C(F)(F)F, for which the activity coefficient by setting is: (323.15 K) 0.92 ± 0.06; (333.15 K) 0.94 ± 0.06; (343.15 K) 0.96 ± 0.06.
With `CCO` [ethanol] + CCCOC[n+]1ccn(Cc2ccccc2)c1.N#C[N-]C#N, the activity coefficient by setting is: (323.15 K) 0.73 ± 0.05; (333.15 K) 0.6 ± 0.04; (343.15 K) 0.59 ± 0.04.
`C=CCCCC` [hex-1-ene] + CCCCCCCCn1cc[n+](COCCCOC[n+]2ccn(CCCCCCCC)c2C)c1C.N#C[N-]C#N.N#C[N-]C#N: the activity coefficient by setting is: (323.15 K) 4.93 ± 0.34; (333.15 K) 4.41 ± 0.3.
`CCCCCCCCC` [nonane] + CCCOC[n+]1ccc(N(C)C)cc1.O=S(=O)([N-]S(=O)(=O)C(F)(F)F)C(F)(F)F: the activity coefficient is, setting by setting: (323.15 K) 32.8 ± 2.2; (333.15 K) 30.6 ± 2.1; (343.15 K) 27.1 ± 1.9.
For the compound `CCCO` [propan-1-ol] + CCCOC[n+]1ccn(C)c1.F[B-](F)(F)F, the activity coefficient is 3.1 ± 0.21 (323.15 K), 2.79 ± 0.19 (333.15 K) and 2.53 ± 0.17 (343.15 K).
The corresponding values for `CO` [methanol] + CCCOC[n+]1ccn(C)c1.O=S(=O)([N-]S(=O)(=O)C(F)(F)F)C(F)(F)F are 1.2 ± 0.08, 1.12 ± 0.07 and 1.04 ± 0.07.
With `CCCC(C)=O` [pentan-2-one] + Cn1cc[n+](COCCCOC[n+]2ccn(C)c2)c1.O=S(=O)([N-]S(=O)(=O)C(F)(F)F)C(F)(F)F.O=S(=O)([N-]S(=O)(=O)C(F)(F)F)C(F)(F)F, the activity coefficient (323.15 K) amounted to 0.62 ± 0.04, the activity coefficient (333.15 K) stood at 0.65 ± 0.04 and the activity coefficient (343.15 K) was 0.63 ± 0.04.
As for `C=CCCCC` [hex-1-ene] + CCCOC[n+]1ccn(C)c1.N#C[N-]C#N, the activity coefficient (323.15 K) amounted to 28 ± 1.9.
For the compound `CCCCCCCC` [octane] + CCCOC[n+]1ccn(C)c1.O=S(=O)([N-]S(=O)(=O)C(F)(F)F)C(F)(F)F, the activity coefficient (323.15 K) was 34.1 ± 2.3, the activity coefficient (333.15 K) amounted to 29.7 ± 2 and the activity coefficient (343.15 K) was 26.4 ± 1.8.
Turning to `CCCCCCCCCCC` [undecane] + CCCOC[n+]1ccn(Cc2ccccc2)c1.F[B-](F)(F)F, the activity coefficient (323.15 K) turned out to be 352 ± 24, the activity coefficient (333.15 K) amounted to 301 ± 21 and the activity coefficient (343.15 K) is 286 ± 20.
`CCOCC` [diethyl ether] + CN(C)c1cc[n+](COCCCOC[n+]2ccc(N(C)C)cc2)cc1.O=S(=O)([N-]S(=O)(=O)C(F)(F)F)C(F)(F)F.O=S(=O)([N-]S(=O)(=O)C(F)(F)F)C(F)(F)F: the activity coefficient reads like this: (323.15 K) 2.46 ± 0.17; (333.15 K) 2.47 ± 0.17; (343.15 K) 2.43 ± 0.17.
`c1ccsc1` [thiophene] + CN(C)c1cc[n+](COCCCOC[n+]2ccc(N(C)C)cc2)cc1.O=S(=O)([N-]S(=O)(=O)C(F)(F)F)C(F)(F)F.O=S(=O)([N-]S(=O)(=O)C(F)(F)F)C(F)(F)F: the activity coefficient is, setting by setting: (323.15 K) 0.55 ± 0.04; (333.15 K) 0.56 ± 0.04; (343.15 K) 0.57 ± 0.04.
As to `CCCCCCCCC` [nonane] + CCCOC[n+]1ccn(Cc2ccccc2)c1.F[B-](F)(F)F, the activity coefficient is 179 ± 12 (323.15 K), 164 ± 11 (333.15 K) and 126 ± 8.7 (343.15 K).
For `CCCCCCCCCCC` [undecane] + CCCCCCCCn1cc[n+](COCCCOC[n+]2ccn(CCCCCCCC)c2C)c1C.N#C[N-]C#N.N#C[N-]C#N, the activity coefficient is, setting by setting: (323.15 K) 24.4 ± 1.7; (333.15 K) 23.4 ± 1.6; (343.15 K) 22.4 ± 1.5.
As to `CCC(=O)CC` [pentan-3-one] + CN(C)c1cc[n+](COCCCOC[n+]2ccc(N(C)C)cc2)cc1.O=S(=O)([N-]S(=O)(=O)C(F)(F)F)C(F)(F)F.O=S(=O)([N-]S(=O)(=O)C(F)(F)F)C(F)(F)F, the activity coefficient by setting is: (323.15 K) 0.67 ± 0.05; (333.15 K) 0.69 ± 0.05; (343.15 K) 0.7 ± 0.05.
Take `CCC[N+](=O)[O-]` [1-nitropropane] + CCCOC[n+]1ccn(Cc2ccccc2)c1.N#C[N-]C#N: the activity coefficient runs as follows: (323.15 K) 1.04 ± 0.07; (333.15 K) 1.06 ± 0.07; (343.15 K) 1.06 ± 0.07.
Take `C#CCCCCC` [1-heptyne] + CCCCCCCCn1cc[n+](COCCC)c1C.O=S(=O)([N-]S(=O)(=O)C(F)(F)F)C(F)(F)F: the activity coefficient (323.15 K) is 1.68 ± 0.11, the activity coefficient (333.15 K) was 1.64 ± 0.11 and the activity coefficient (343.15 K) stood at 1.62 ± 0.11.
The corresponding values for `CCCCCCCCCC` [decane] + CCCOC[n+]1ccc(N(C)C)cc1.O=S(=O)([N-]S(=O)(=O)C(F)(F)F)C(F)(F)F are 41.1 ± 2.8, 38.5 ± 2.6 and 34.5 ± 2.4.
The corresponding values for `Cc1ccc(C)cc1` [1,4-dimethylbenzene] + CCCOC[n+]1ccn(Cc2ccccc2)c1.N#C[N-]C#N are 3.66 ± 0.25, 3.56 ± 0.24 and 3.46 ± 0.24.
As for `Cc1cccc(C)c1` [1,3-dimethylbenzene] + CCCCCCCCn1cc[n+](COCCCOC[n+]2ccn(CCCCCCCC)c2C)c1C.N#C[N-]C#N.N#C[N-]C#N, the activity coefficient (323.15 K) came to 1.36 ± 0.09, the activity coefficient (333.15 K) was 1.37 ± 0.09 and the activity coefficient (343.15 K) is 1.39 ± 0.09.
The corresponding values for `C1CCCCC1` [cyclohexane] + CCCOC[n+]1ccn(Cc2ccccc2)c1.O=S(=O)([N-]S(=O)(=O)C(F)(F)F)C(F)(F)F are 4.98 ± 0.34, 4.29 ± 0.29 and 3.99 ± 0.27.
The corresponding values for `Cc1ccccc1` [toluene] + Cn1cc[n+](COCCCOC[n+]2ccn(C)c2)c1.N#C[N-]C#N.N#C[N-]C#N are 5.63 ± 0.38, 5.58 ± 0.38 and 5.49 ± 0.37.
On to `CCc1ccccc1` [ethylbenzene] + CCCCCCCCn1cc[n+](COCCC)c1C.O=S(=O)([N-]S(=O)(=O)C(F)(F)F)C(F)(F)F, for which the activity coefficient runs as follows: (323.15 K) 1.01 ± 0.06; (333.15 K) 1.03 ± 0.06; (343.15 K) 1.04 ± 0.07.
Regarding `CCc1ccccc1` [ethylbenzene] + CCCOC[n+]1ccn(Cc2ccccc2)c1.O=S(=O)([N-]S(=O)(=O)C(F)(F)F)C(F)(F)F, the activity coefficient was found to be 1.5 ± 0.1 (323.15 K), 1.33 ± 0.09 (333.15 K) and 1.32 ± 0.09 (343.15 K).
The corresponding values for `ClC(Cl)Cl` [trichloromethane] + N#C[N-]C#N.N#C[N-]C#N.c1ccc(Cn2cc[n+](COCCCOC[n+]3ccn(Cc4ccccc4)c3)c2)cc1 are 1.22 ± 0.08, 1.2 ± 0.08 and 1.33 ± 0.09.
The corresponding values for `c1ccncc1` [pyridine] + CCCOC[n+]1ccn(C)c1.N#C[N-]C#N are 0.91 ± 0.06, 0.93 ± 0.06 and 0.97 ± 0.06.
The corresponding values for `ClC(Cl)Cl` [trichloromethane] + CCCOC[n+]1ccn(C)c1.N#C[N-]C#N are 0.8 ± 0.05, 0.85 ± 0.05 and 0.92 ± 0.06.
In the case of `CCCC(C)=O` [pentan-2-one] + CCCCCCCCn1cc[n+](COCCCOC[n+]2ccn(CCCCCCCC)c2C)c1C.O=S(=O)([N-]S(=O)(=O)C(F)(F)F)C(F)(F)F.O=S(=O)([N-]S(=O)(=O)C(F)(F)F)C(F)(F)F, the activity coefficient (323.15 K) was found to be 0.29 ± 0.03, the activity coefficient (333.15 K) stood at 0.29 ± 0.03 and the activity coefficient (343.15 K) is 0.3 ± 0.03.
